In patent EP1243581A1, “Pyridinium compounds useful for the treatment of AGE-related diseases” (Torrent Pharmaceuticals Ltd, priority 2001, dated 2002):

Legend:
AGE-BSA = target: T1, AGE-BSA (Bos taurus, UniProt P02769); experiment: In-vitro screening for AGE-breaking activity (ELISA on 16 weeks AGE-BSA); type: biochemical, bovine; conditions: Concentration 5 mM; 10µg/ml 16 weeks AGE-BSA, 37°C, 24 hours
T1 construct: Bovine serum albumin (fraction V) (BSA); from tissue; host or cells: bovine serum (fraction V albumin)
T1 sequence (P02769 25-607): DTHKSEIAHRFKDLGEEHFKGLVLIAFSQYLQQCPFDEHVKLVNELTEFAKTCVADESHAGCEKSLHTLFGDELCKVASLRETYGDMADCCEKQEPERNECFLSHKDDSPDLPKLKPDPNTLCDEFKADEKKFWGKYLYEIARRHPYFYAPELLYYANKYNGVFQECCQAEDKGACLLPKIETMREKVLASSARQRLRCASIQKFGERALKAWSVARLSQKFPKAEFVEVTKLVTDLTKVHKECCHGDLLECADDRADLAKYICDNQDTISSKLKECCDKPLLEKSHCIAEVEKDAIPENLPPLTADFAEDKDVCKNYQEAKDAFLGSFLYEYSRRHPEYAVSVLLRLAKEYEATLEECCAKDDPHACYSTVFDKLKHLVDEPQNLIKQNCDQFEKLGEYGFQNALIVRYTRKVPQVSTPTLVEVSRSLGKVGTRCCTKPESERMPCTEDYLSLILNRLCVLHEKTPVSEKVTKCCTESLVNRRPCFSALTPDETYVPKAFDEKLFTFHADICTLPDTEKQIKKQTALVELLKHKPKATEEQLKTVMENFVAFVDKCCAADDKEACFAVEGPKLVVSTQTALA
Description: • Materials: • Bovine serum albumin (fraction V) (BSA) • Glucose, analytical grade • Phosphate buffered saline (PBS) • Equipment: • Microplate ELISA Reader - Spectramax Plus (Molecular Devices, USA) • Microplate washer, (Bio -Tec Instruments, USA) • pH meter Methods of experiment: Elisa (Enzyme Linked Immunosorbent Assay) 160 mg/ml of protein, bovine serum albumin, BSA and 1.6M glucose sugar were dissolved in phosphate buffered saline, PBS. Sodium azide was added at 0.02% concentration as a preservative. The solution was filtered asceptically through a 0.22 µM filter and kept for aging at 37°C for 16 weeks. After 16 weeks the solution was dialyzed against PBS, aliquoted and stored at - 20°C.
To determine the AGE breaking activity, 10µg/ml of the 16 weeks AGE-BSA was incubated with different concentrations of the test compounds at 37°C for 24 hours and AGE breaking activity of the test compounds by ELISA was determined. […] Different concentrations of 16 weeks AGE-BSA were coated on a microtitre plate as standard. Each concentration is coated in triplicates. • 2. The test samples were coated on microtitre plate at a concentration of 5 ng. to 20 ng per well in triplicates. • 3. The plate was incubated at 37°C for one hour. • 4. After incubation the plate was washed with PBST (PBS with 0.05% Tween 20). • 5. Blocking with 5% skimmed milk in PBS at 37°C for one hour was done. • 6. The plate was washed with PBST. • 7. Primary antibody against AGE-BSA was added and the plate is incubated at 37°C for one hour. • 8. The plate was washed with PBST • 9. Secondary antibody anti rabbit HRPO (Horse-Radish Per Oxidase) conjugate was added and the plate is incubated at 37°C for one hour. • 10. The plate was washed with PBST. • 11. Colour development with OPD (orthophenylenediamine dihydrochloride) and hydrogen peroxide was done. • 12. OD (optical density) at (450nm reading - 620nm reading) was measured after incubation at 37°C for 15 minutes with Microplate ELISA Reader.
The breaker activity of the compounds were determined by the following formula: % Breaker activity =(OD450-620 Control - OD450-620 Test)/(OD450-620 Control)x 100 [formula]

rat model of diabetes [1] = experiment: In-vivo screening: creatinine clearance in STZ-induced diabetic rats; conditions: b.i.d., 8 weeks, after 12 weeks of STZ diabetes, versus untreated diabetic group
Description: (§1) The test compounds were studied for their beneficial effects on diabetic neuropathy and nephropathy in a rat model of diabetes. The rats were divided into three groups. The first group consisted of age matched untreated non-diabetic animals. The second group consisted of diabetic controls and the third group was the diabetic group treated with the test compound. Each treatment group had its own corresponding control and diabetic groups. The second and third groups were treated with Streptozotocin (STZ) at 60mg/kg for the induction of diabetes. After completion of 12 weeks of diabetes the rats were treated with the test compound daily (doses shown in table) for a period of 8 weeks. At the end of the treatment the creatinine clearances and nerve conduction velocities (NCV) of the animals were estimated. Creatinine clearances of the rats were estimated as follows Creatinine clearance =(Concentration of creatinine in the urine)/(Concentration of creatinine in the blood.)x ml urine passed/minute [formula]
The creatinine clearance in untreated diabetic group was compared with the treated group and the percentage improvements are shown in the Table 3.

rat model of diabetes [2] = experiment: In-vivo screening: nerve conduction velocity in STZ-induced diabetic rats; conditions: b.i.d., 8 weeks, after 12 weeks of STZ diabetes
Description: as §1, with “Creatinine clearances of the rats were estimated as follows Creatinine clearance =(Concentration of creatinine in the urine)/(Concentration of creatinine in the blood.)x ml urine passed/minute [formula]” left out
The nerve conduction velocity was measured using a modified method of Biro et al 1998. […] Electromyograms (EMG's) recorded from the plantar muscles consisted of two components: (l) the short latency direct motor response (M) and the monosynaptically elicited long-latency sensory response (H, Hoffmann reflex). Latency and the duration of the M responses were measured and the motor nerve conduction velocity (MNCV) was calculated as follows : MNCV =(Distance between the sciatic and tibial stimulation points.)/(Differences of the latency for Msciatic and Mtibial) [formula] […]

SMILES | % breakage of AGE-BSA crosslinks at 5000 µM (AGE-BSA) | % Increase in creatinine clearance (rat model of diabetes [1]; 7.5 mg/kg) | % Increase in the NCV (rat model of diabetes [2]; 7.5 mg/kg) | % Increase in creatinine clearance (rat model of diabetes [1]; 6.0 mg/kg) | % Increase in the NCV (rat model of diabetes [2]; 6.0 mg/kg)
O=C(NNC(=O)c1ccc[n+](CC(=O)c2cccs2)c1)c1ccc[n+](CC(=O)c2cccs2)c1 [Compound 15, N,N'-bis [3-carbonyl-1-(2-thien-2'-yl-2-oxoethyl)pyridinium] hydrazine dichloride] | 20% | 103.0% | 60.0% | – | –
O=C(C[n+]1cccc(C(=O)NNC(=O)c2ccc[n+](CC(=O)NC3CC3)c2)c1)NC1CC1 [Compound 21, N,N'-bis-[3-carbonyl-1-(2-cyclopropylamino-2-oxoethyl)pyridinium] hydrazine dichloride] | 22.8% | – | – | 5.0% | 58.4%
